Test systems include M14; MOLT-4; UACC-62; SW-620; RPMI-8226; U-251; MCF7; MDA-MB-435; MDA-N; COLO 205; CCRF-CEM; NCI-H460; SF-295; IGROV-1; NCI-H522; EKVX; ACHN; HCC 2998; NCI-H23; HCT-116.
Holding throughout (experiment): DTP human tumour cell line panel, 48 h

The structures appear in SMILES notation.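 Cultured in 96-well plates, cells were exposed to test compound for 48 hours across five concentrations. GI50: concentration for 50% inhibition of growth.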 Activity calls are given as the source filed them. No stated cut-off is given here; in the data, active = GI50 up to about 1.1 µM and inactive = higher.

With `Cc1cc(S(=O)(=O)/N=C2\NCCN2Cc2ccccc2)c(S)cc1Cl`, the GI50 with M14 was > 100 µM (inactive); in the experiment with MOLT-4, 47.2 µM (inactive); in the experiment on UACC-62, 72.1 µM (inactive); with SW-620 it was > 100 µM (inactive); with RPMI-8226, 10.5 µM (inactive); with U-251, > 100 µM (inactive). Besides, the GI50 is > 100 µM (inactive) in the experiment with MCF7; > 100 µM (inactive) in the experiment on MDA-MB-435; > 100 µM (inactive) with MDA-N; > 100 µM (inactive) with COLO 205; 7.35 µM (inactive) with CCRF-CEM; > 100 µM (inactive) in the experiment with NCI-H460. Further, the GI50 is 81.7 µM (inactive) in the experiment on SF-295; > 100 µM (inactive) in the experiment on IGROV-1; 40.6 µM (inactive) with NCI-H522; > 100 µM (inactive) with EKVX; > 100 µM (inactive) with ACHN; > 100 µM (inactive) in the experiment with HCC 2998. Moreover, the GI50 with NCI-H23 and in the experiment on HCT-116 was > 100 µM (inactive) in each case.

`OCCCCn1cc(Cn2ncc3c(O)ncnc32)nn1`: the GI50 with M14, in the experiment with MOLT-4, in the experiment on UACC-62, in the experiment on SW-620, with RPMI-8226 and in the experiment on U-251 was > 100 µM (inactive) in each case. The GI50 in the experiment with MCF7, in the experiment on MDA-MB-435, with MDA-N, in the experiment on COLO 205, in the experiment with CCRF-CEM and in the experiment with NCI-H460 was > 100 µM (inactive) each time. The GI50 with SF-295, with IGROV-1, in the experiment with NCI-H522, in the experiment with EKVX, in the experiment on ACHN and in the experiment with HCC 2998 was > 100 µM (inactive) throughout. Further, the GI50 in the experiment with NCI-H23 and in the experiment with HCT-116 was > 100 µM (inactive) in each case.

Turning to `Oc1cccc2cc(Cl)cnc12`, the GI50 in the experiment with M14 is 9.06 µM (inactive); with MOLT-4, 3.78 µM (inactive); in the experiment on UACC-62 it was 5.51 µM (inactive); with SW-620, 7.18 µM (inactive); in the experiment on RPMI-8226, 4.91 µM (inactive); with U-251 it was 9.08 µM (inactive). Besides, the GI50 is 3.4 µM (inactive) in the experiment with MCF7; 14.7 µM (inactive) in the experiment with MDA-MB-435; 31.9 µM (inactive) in the experiment on MDA-N; 31.4 µM (inactive) with COLO 205; 2.45 µM (inactive) in the experiment with CCRF-CEM; 6.95 µM (inactive) in the experiment on NCI-H460. For the same compound, the GI50 was 3.39 µM (inactive) in the experiment on SF-295; 7.16 µM (inactive) with IGROV-1; 2.75 µM (inactive) in the experiment on NCI-H522; 4.88 µM (inactive) with EKVX; 8.95 µM (inactive) in the experiment on ACHN; 27.1 µM (inactive) with HCC 2998. Further, the GI50 is 6.12 µM (inactive) with NCI-H23 and 4.46 µM (inactive) with HCT-116.

`COC(=O)C1CC2C=CC1N(C(=O)OCc1ccccc1)C2` (stereo not given): the GI50 in the experiment on M14 is > 100 µM (inactive); with MOLT-4, 81.3 µM (inactive); with UACC-62, > 100 µM (inactive); with SW-620 it was > 100 µM (inactive); with RPMI-8226, > 100 µM (inactive); in the experiment with U-251, > 100 µM (inactive). The GI50 in the experiment on MCF7 was 98.2 µM (inactive); in the experiment with MDA-MB-435 it was > 100 µM (inactive); with MDA-N, > 100 µM (inactive); with COLO 205, > 100 µM (inactive); in the experiment on CCRF-CEM it was > 100 µM (inactive); in the experiment with NCI-H460 it was > 100 µM (inactive). Further, the GI50 was > 100 µM (inactive) in the experiment on SF-295; > 100 µM (inactive) in the experiment with IGROV-1; 0.82 µM (active) in the experiment with NCI-H522; 91.4 µM (inactive) in the experiment on EKVX; > 100 µM (inactive) in the experiment with ACHN; > 100 µM (inactive) in the experiment on HCC 2998. Also, the GI50 with NCI-H23 and with HCT-116 was > 100 µM (inactive) each time.

Regarding `CC(=O)/C(=C(/Br)I)c1ccccc1`, the GI50 in the experiment on M14 is 6.87 µM (inactive); in the experiment on MOLT-4, 1.73 µM (inactive); with UACC-62, 12.8 µM (inactive); with SW-620, 3.15 µM (inactive); with RPMI-8226, 2.58 µM (inactive); in the experiment with U-251, 13.1 µM (inactive). In addition, the GI50 is 6.47 µM (inactive) in the experiment on MCF7; 3.01 µM (inactive) with MDA-MB-435; 3.45 µM (inactive) with MDA-N; 13.6 µM (inactive) in the experiment with COLO 205; 1.58 µM (inactive) with CCRF-CEM; 20.3 µM (inactive) with NCI-H460. Besides, the GI50 with SF-295 was 15.5 µM (inactive); with IGROV-1 it was 10.9 µM (inactive); in the experiment on NCI-H522 it was 0.442 µM (active); in the experiment with EKVX, 12.6 µM (inactive); in the experiment on ACHN, 13 µM (inactive); with HCC 2998, 6.81 µM (inactive). Besides, the results for the GI50 in the experiment with NCI-H23 and with HCT-116 were 4.13 µM (inactive) and 4.52 µM (inactive), respectively.

As to `CC1=NN(C(=O)c2ccccc2O)C(c2ccccc2Cl)C1C(=O)Nc1ccccc1` (stereo not given), the concentration for 50% growth inhibition (GI50) is 0.054 µM (active) in the experiment with M14; < 0.0302 µM (active) in the experiment on MOLT-4; < 0.0197 µM (active) in the experiment with UACC-62; 0.388 µM (active) in the experiment with SW-620; 0.0726 µM (active) with RPMI-8226; < 0.0213 µM (active) in the experiment on U-251. Moreover, the GI50 in the experiment on MCF7 was 0.0387 µM (active); in the experiment with MDA-MB-435, < 0.0195 µM (active); in the experiment on MDA-N it was < 0.0205 µM (active); in the experiment with COLO 205, 5.26 µM (inactive); with CCRF-CEM, 0.0288 µM (active); in the experiment on NCI-H460, 0.0964 µM (active). Besides, the GI50 with SF-295 is 0.0975 µM (active); in the experiment on IGROV-1, < 0.028 µM (active); in the experiment on NCI-H522 it was 0.119 µM (active); in the experiment on EKVX, 1.7 µM (inactive); in the experiment on ACHN, 0.0238 µM (active); with HCC 2998, 2.84 µM (inactive). Besides, the GI50 in the experiment with NCI-H23 was < 0.0378 µM (active); in the experiment on HCT-116, < 0.0196 µM (active).

`C=C1[C@@H](O)C[C@@]23CC[C@@H]4[C@@]5(C)CC[C@@H](OC(C)=O)C(C)(C)[C@@H]5C[C@@H](OC5OC(COC(C)=O)C(O)C(O)C5O)[C@@]4(C)C2=CC[C@H]3[C@H]1C` (stereo not given in full): the GI50 is 4.49 µM (inactive) in the experiment with M14; 2.5 µM (inactive) in the experiment on MOLT-4; 6.07 µM (inactive) in the experiment on UACC-62; 6.44 µM (inactive) with SW-620; 2.84 µM (inactive) in the experiment with RPMI-8226; 3.03 µM (inactive) in the experiment on U-251. The GI50 was 2.14 µM (inactive) in the experiment with MCF7; 4.51 µM (inactive) in the experiment on MDA-MB-435; 5.16 µM (inactive) with MDA-N; 2 µM (inactive) with COLO 205; 2.97 µM (inactive) with CCRF-CEM; 4.13 µM (inactive) with NCI-H460. The GI50 in the experiment on SF-295 is 4.06 µM (inactive); with IGROV-1 it was 3.8 µM (inactive); in the experiment with NCI-H522, 5.35 µM (inactive); with EKVX, 10.2 µM (inactive); in the experiment with ACHN, 9.12 µM (inactive); in the experiment on HCC 2998, 1.75 µM (inactive). For the same compound, the GI50 with NCI-H23 was 10.7 µM (inactive); in the experiment with HCT-116, 3.43 µM (inactive).

As to `O=C(CSc1nc2ccc(I)cc2c(=O)n1Cc1ccccc1)NN1C(=O)CCC1=O`, the GI50 is 79.8 µM (inactive) in the experiment with M14; 42.1 µM (inactive) in the experiment with MOLT-4; 55.7 µM (inactive) with UACC-62; 75.2 µM (inactive) in the experiment with SW-620; 37.7 µM (inactive) in the experiment on RPMI-8226; 41.2 µM (inactive) in the experiment on U-251. Besides, the GI50 was 41.5 µM (inactive) in the experiment on MCF7; 64.1 µM (inactive) in the experiment with MDA-MB-435; 83.4 µM (inactive) in the experiment with MDA-N; 34 µM (inactive) in the experiment on COLO 205; 34.5 µM (inactive) in the experiment on CCRF-CEM; 63.8 µM (inactive) with NCI-H460. The GI50 in the experiment with SF-295 was 37.9 µM (inactive); with IGROV-1, 29.9 µM (inactive); in the experiment on NCI-H522, 20.4 µM (inactive); in the experiment with EKVX, 34.1 µM (inactive); in the experiment with ACHN, 18.2 µM (inactive); with HCC 2998, 77.4 µM (inactive). In addition, the GI50 in the experiment on NCI-H23 was 17.6 µM (inactive); in the experiment with HCT-116, 43.3 µM (inactive).

On to `O=CN1CCN(C(=O)c2ccc(Cl)cc2Cl)C1=S`, for which the GI50 with M14 is > 100 µM (inactive); in the experiment on MOLT-4, > 100 µM (inactive); in the experiment on UACC-62, > 100 µM (inactive); in the experiment with SW-620, 77.8 µM (inactive); in the experiment with RPMI-8226, 20.5 µM (inactive); in the experiment with U-251, > 100 µM (inactive). In addition, the GI50 in the experiment on MCF7 was 34.6 µM (inactive); in the experiment with MDA-MB-435, 43.9 µM (inactive); in the experiment with MDA-N, 64.6 µM (inactive); in the experiment with COLO 205, > 100 µM (inactive); in the experiment on CCRF-CEM, 27.5 µM (inactive); in the experiment with NCI-H460, > 100 µM (inactive). Besides, the GI50 was > 100 µM (inactive) with SF-295; > 100 µM (inactive) with IGROV-1; 20.3 µM (inactive) in the experiment with NCI-H522; > 100 µM (inactive) with EKVX; > 100 µM (inactive) in the experiment on ACHN; > 100 µM (inactive) in the experiment on HCC 2998. In addition, the GI50 with NCI-H23 and with HCT-116 was > 100 µM (inactive) throughout.

Take `COC(C)(C)C(O)C(O)C[C@H](C)C1CC=C2C1(C)CCC1[C@@]3(C)CCC(OC(C)=O)C(C)(C)C3CC(OC3OC(COC(C)=O)C(O)C(O)C3O)[C@@]21C` (stereo not given in full): the GI50 was 3.15 µM (inactive) with M14; 1.93 µM (inactive) in the experiment with MOLT-4; 2.76 µM (inactive) in the experiment on UACC-62; 5.38 µM (inactive) with SW-620; 2.07 µM (inactive) with RPMI-8226; 4.37 µM (inactive) in the experiment on U-251. For the same compound, the GI50 in the experiment on MCF7 is 3.33 µM (inactive); with MDA-MB-435, 3.24 µM (inactive); with MDA-N it was 3.01 µM (inactive); with COLO 205 it was 1.99 µM (inactive); in the experiment on CCRF-CEM, 3 µM (inactive); in the experiment on NCI-H460, 3.24 µM (inactive). Besides, the GI50 in the experiment on SF-295 is 3.03 µM (inactive); in the experiment with IGROV-1, 2.78 µM (inactive); in the experiment with NCI-H522, 2.78 µM (inactive); with EKVX, 4.79 µM (inactive); in the experiment on ACHN it was 3.87 µM (inactive); in the experiment with HCC 2998, 2.14 µM (inactive). For the same compound, the GI50 in the experiment with NCI-H23 is 4.85 µM (inactive); in the experiment with HCT-116, 3 µM (inactive).

By GI50 is commonly meant the concentration at which growth is held to half of that of the control.

These data come from ChEMBL document CHEMBL1201862, “PubChem BioAssay data set” (2004).
